This assay concerns the target T1, CpGAPDH (Cryptosporidium parvum glyceraldehyde 3-phosphate dehydrogenase) (Cryptosporidium parvum, UniProt Q7YYQ9).
T1 construct: gene cgd6_3790; recombinant, N-terminal hexa-histidine tag kept, expressed in E. coli; homotetramer
The assay is described as follows: X-ray crystal structure, […] Å, co-crystallized. The following applies: holoenzyme; 2 mM NAD; pH 7.5; NAD in all four subunits. The assay is classed as binding.

Molecules are shown by their SMILES.

T1 sequence (Q7YYQ9 1-339): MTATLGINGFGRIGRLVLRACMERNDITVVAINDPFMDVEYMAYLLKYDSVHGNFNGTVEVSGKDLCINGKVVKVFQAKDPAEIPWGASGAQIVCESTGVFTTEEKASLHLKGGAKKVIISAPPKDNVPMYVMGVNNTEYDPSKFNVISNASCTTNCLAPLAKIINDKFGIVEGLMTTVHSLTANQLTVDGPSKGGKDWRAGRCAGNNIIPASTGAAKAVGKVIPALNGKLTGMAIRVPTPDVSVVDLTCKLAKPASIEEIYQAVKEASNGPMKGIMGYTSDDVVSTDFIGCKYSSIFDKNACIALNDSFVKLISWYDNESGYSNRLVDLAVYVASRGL

Regarding `NC(=O)c1ccc[n+]([C@@H]2O[C@H](COP(=O)(O)OP(=O)(O)OC[C@H]3O[C@@H](n4cnc5c(N)ncnc54)[C@H](O)[C@@H]3O)[C@@H](O)[C@H]2O)c1` [NAD], the “X-ray crystal structure, 2.0 Å, co-crystallized” value is recorded as “The holoenzyme form of CpGAPDH contains one NAD molecule in each subunit”.

Values taken from PMC2662861, “An unexpected phosphate binding site in Glyceraldehyde 3-Phosphate Dehydrogenase: Crystal structures of apo, holo and ternary complex of Cryptosporidium parvum enzyme” (BMC Structural Biology, 2009).
